Measurements as given in the supplement of paper PMC5412046.
Counter-ions that a name gives are not always drawn.

How the values were obtained:
[1] = test system: SB.mhdgc-1; experiment: viability at highest tested concentration (MAXR) relative to DMSO; higher = less cytotoxic; details: SB.mhdgc-1 (hereditary c.1380delA CDH1 gastric cancer)
Outline: (§1)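 Gastric cancer cells derived from hereditary or sporadic patients were treated for 48 h with compound at 11 threefold dilutions, with the top concentration recorded per compound. Viability was then read by CellTiter-Glo luminescence. Data are viability normalised to DMSO, at the highest concentration or as trapezoidal area under the curve.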

[2] = test system: SB.msgc-1; experiment: as above; details: SB.msgc-1 (sporadic gastric cancer)
Outline: as §1

[3] = test system: SB.mhdgc-1; experiment: area under the dose-response curve of % viability (trapezoidal, 11 doses) (% viability x log10 concentration); higher = less cytotoxic; details: SB.mhdgc-1 (hereditary c.1380delA CDH1 gastric cancer)
Outline: as §1

[4] = test system: SB.msgc-1; experiment: as above; details: SB.msgc-1 (sporadic gastric cancer)
Outline: as §1

| Compound | viability [1] | viability [2] | area under the dose-response curve [3] | area under the dose-response curve [4] |
| --- | --- | --- | --- | --- |
| OC1=C(O)C2=C(\C=C/C(=O)O2)C=C1 [Daphnetin] (top concentration 46.0829 µM) | 72.2% | 61.4% | 468 | 535 |
| O=C(/C=C/c1cccnc1)NCCCCC1CCN(C(=O)c2ccccc2)CC1 [Daporinad] (top concentration 46.0829 µM) | 41.7% | 42.8% | 264 | 419 |
| CN(C)[C@@H](CCOc1cccc2ccccc12)c1ccccc1 [Dapoxetine hydrochloride] (top concentration 46.0829 µM) | 15.4% | 47% | 463 | 516 |
| CCCCCCCCCC(=O)N[C@@H](Cc1c[nH]c2ccccc12)C(=O)N[C@H](CC(N)=O)C(=O)N[C@@H](CC(=O)O)C(=O)N[C@@H]1C(=O)NCC(=O)N[C@@H](CCCN)C(=O)N[C@@H](CC(=O)O)C(=O)N[C@H](C)C(=O)N[C@@H](CC(=O)O)C(=O)NCC(=O)N[C@H](CO)C(=O)N[C@@H]([C@@H](C)CC(=O)O)C(=O)N[C@@H](CC(=O)c2ccccc2N)C(=O)O[C@@H]1C [Daptomycin] (top concentration 46.0829 µM) | 119% | 112% | 573 | 531 |
| Cc1nc(Nc2ncc(C(=O)Nc3c(C)cccc3Cl)s2)cc(N2CCN(CCO)CC2)n1 [Dasatinib] (top concentration 46.0829 µM) | 53.2% | 37.8% | 416 | 398 |
| COc1cccc2c1C(=O)c1c(O)c3c(c(O)c1C2=O)C[C@@](O)(C(C)=O)C[C@@H]3O[C@H]1C[C@H](N)[C@H](O)[C@H](C)O1 [Daunorubicin] (top concentration 46.0829 µM) | 19.5% | 59.5% | 337 | 419 |
| C[C@@H]1C[C@H]2[C@@H]3\C=C(C)/C4=C/C5=C(C[C@]4(C)[C@H]3[C@@H](O)C[C@]2(C)[C@@]1(O)C(=O)CO)C=N[N]5C6=CC=CC=C6 [Deacetyl cortivazol] (top concentration 46.0829 µM) | 20.9% | 27.5% | 391 | 508 |
| NC\1=N\C(=O)N(\C=N1)[C@H]2C[C@H](O)[C@@H](CO)O2 [Decitabine] (top concentration 46.0829 µM) | 63.1% | 98.7% | 481 | 480 |
| O=C(O)c1ccc(-n2nc(-c3ccccc3O)nc2-c2ccccc2O)cc1 [Deferasirox] (top concentration 46.0829 µM) | 58.3% | 39.1% | 536 | 478 |
| CC(=O)OCC(=O)[C@@]12\N=C(C)/O[C@@H]1C[C@H]3[C@@H]4CCC/5=C/C(=O)/C=C\[C@]5(C)[C@H]4[C@@H](O)C[C@]23C [Deflazacort] (top concentration 46.0829 µM) | 97.3% | 105% | 489 | 552 |
| CCC[C@H](NC(=O)/C(C#N)=C/c1cccc(Br)n1)c1ccccc1 [Degrasyn] (top concentration 46.0829 µM) | 7.59% | 1.04% | 464 | 404 |
| COC1=CC2=C(C=C1OC)[C@H]3[C@@H](CO2)OC4=C(C=CC5=C4\C=C/C(C)(C)O5)C3=O [Deguelin] (top concentration 46.0829 µM) | 8.16% | 22.6% | 424 | 338 |
| C[C@]12CC[C@H]3[C@@H](C\C=C/4C[C@@H](O)CC[C@]34C)[C@@H]1CCC2=O [Dehydroepiandrosterone] (top concentration 46.0829 µM) | 32% | 38.2% | 465 | 530 |
| CC(C)C[C@H](NC(=O)[C@@H](NC(=O)c1cccc(-c2ccccc2)n1)[C@@H](C)O)B(O)O [Delanzomib] (top concentration 46.0829 µM) | 1.09% | 1.1% | 198 | 184 |
| CN[C@H]1CCC2=CC(=C(OC)C(=C2C/3=C/C=C(OC)\C(=O)/C=C13)OC)OC [Demecolcine] (top concentration 46.0829 µM) | 33.3% | 40% | 278 | 246 |
| CC1(C)O[C@@H]2C[C@H]3[C@@H]4CCC5=CC(=O)C=C[C@]5(C)[C@H]4[C@@H](O)C[C@]3(C)[C@]2(C(=O)CO)O1 [Desonide] (top concentration 46.0829 µM) | 111% | 108% | 508 | 523 |
| C[C@H]1C[C@H]2[C@@H]3CCC4=CC(=O)C=C[C@]4(C)[C@@]3(F)[C@@H](O)C[C@]2(C)[C@@]1(O)C(=O)CO [Dexamethasone] (top concentration 46.0829 µM) | 120% | 118% | 556 | 558 |
| C[C@@H](CN1CC(=O)NC(=O)C1)N1CC(=O)NC(=O)C1 [Dexrazoxane hydrochloride] (top concentration 46.0829 µM) | 33.7% | 73.3% | 384 | 491 |
| COc1ccc2c(c1)[C@]13CCCCC1C(C2)N(C)CC3 (some centres undefined) [Dextromethorphan hydrobromide] (top concentration 46.0829 µM) | 85.6% | 98.4% | 557 | 520 |
| ClC1=CC=C(C=C1)C(C#N)C2=C(Cl)C=C(C=C2Cl)N3\N=C/C(=O)NC3=O (centres undefined) [Diclazuril] (top concentration 46.0829 µM) | 8.68% | 61% | 538 | 511 |
| O=C([O-])Cc1ccccc1Nc1c(Cl)cccc1Cl [Diclofenac sodium] (top concentration 46.0829 µM) | 39.2% | 104% | 555 | 626 |

| Compound | viability [1] | viability [2] | area under the dose-response curve [3] | area under the dose-response curve [4] |
| --- | --- | --- | --- | --- |
| N[S+](=O)([O-])c1cc(Cl)c(Cl)c([S+](N)(=O)[O-])c1 [Diclofenamide] (top concentration 46.0829 µM) | 112% | 118% | 592 | 575 |
| COc1ccc2c(c1)CN(C)CC2c1ccc(Cl)c(Cl)c1 (centres undefined) [Diclofensine] (top concentration 46.0829 µM) | 78.4% | 69.1% | 526 | 518 |
| O=c1[nH]cnc2c1ncn2[C@H]1CC[C@@H](CO)O1 [Didanosine] (top concentration 46.0829 µM) | 3.57% | 61.5% | 564 | 470 |
| C/C=C(/C(=C/C)c1ccc(O)cc1)c1ccc(O)cc1 [Dienestrol] (top concentration 46.0829 µM) | 34.3% | 70.9% | 527 | 457 |
| C[C@]12CCC\3=C\4CCC(=O)\C=C4CC[C@H]3[C@@H]1CC[C@@]2(O)CC#N [Dienogest] (top concentration 46.0829 µM) | 109% | 115% | 526 | 575 |
| CC/C(=C(/CC)c1ccc(O)cc1)c1ccc(O)cc1 [Diethylstilbestrol] (top concentration 46.0829 µM) | 10.1% | 39% | 404 | 448 |
| C[C@H]1O[C@H](C[C@H](O)[C@@H]1O)O[C@H]2[C@@H](O)C[C@@H](O[C@@H]2C)O[C@H]3[C@@H](O)C[C@@H](O[C@@H]3C)O[C@H]4CC[C@@]5(C)[C@H](CC[C@@H]6[C@@H]5C[C@@H](O)[C@]7(C)[C@H](CC[C@]67O)C/8=C/C(=O)OC8)C4 [Digoxin] (top concentration 92.1659 µM) | 21.9% | 49.9% | 343 | 377 |
| O=C1c2c(O)cc(O)cc2O[C@H](c2cc(O)c(O)c(O)c2)[C@H]1O [Dihydromyricetin] (top concentration 46.0829 µM) | 19.1% | 62.8% | 460 | 512 |
| c1ccc2c(Cc3c[nH]c4ccccc34)c[nH]c2c1 [Diindolylmethane] (top concentration 46.0829 µM) | 2.05% | 0.925% | 351 | 241 |
| COc1ccc(C2Sc3ccccc3N(CCN(C)C)C(=O)C2OC(C)=O)cc1 (centres undefined) [Diltiazem hydrochloride] (top concentration 46.0829 µM) | 96% | 115% | 588 | 583 |
| COC(=O)/C=C/C(=O)OC [Dimethyl fumarate] (top concentration 46.0829 µM) | 20.6% | 66.6% | 302 | 416 |
| CCc1cnn2c(NCc3ccc[n+]([O-])c3)cc(N3CCCC[C@H]3CCO)nc12 [Dinaciclib] (top concentration 46.0829 µM) | 59.7% | 42.2% | 351 | 299 |
| C[C@@H]1CC[C@@]2(OC1)O[C@H]3C[C@H]4[C@@H]5C/C=C6/C[C@H](CC[C@]6(C)[C@H]5CC[C@]4(C)[C@H]3[C@@H]2C)O[C@@H]7O[C@H](CO)[C@@H](O[C@@H]8O[C@@H](C)[C@H](O)[C@@H](O)[C@H]8O)[C@H](O)[C@H]7O[C@@H]9O[C@@H](C)[C@H](O)[C@@H](O)[C@H]9O [Dioscin] (top concentration 46.0829 µM) | 4.07% | 3.18% | 428 | 438 |
| C[C@@H]1CC[C@@]2(OC1)OC1CC3C4CC=C5CC(O)CCC5(C)C4CCC3(C)C1[C@@H]2C (some centres undefined) [Diosgenin] (top concentration 46.0829 µM) | 101% | 91.8% | 569 | 453 |
| COC1=CC=C(C=C1O)C/2=C/C(=O)C3=C(O2)C=C(O[C@@H]4O[C@H](CO[C@@H]5O[C@@H](C)[C@H](O)[C@@H](O)[C@H]5O)[C@@H](O)[C@H](O)[C@H]4O)C=C3O [Diosmin] (top concentration 46.0829 µM) | 39.5% | 48.1% | 494 | 427 |
| CN(C)CCOC(c1ccccc1)c1ccccc1 [Diphenhydramine] (top concentration 46.0829 µM) | 10.1% | 45.7% | 452 | 454 |
| OCCN(CCO)c1nc(N2CCCCC2)c2nc(N(CCO)CCO)nc(N3CCCCC3)c2n1 [Dipyridamole] (top concentration 46.0829 µM) | 9.99% | 19.4% | 473 | 512 |
| CC(C)(C)/[N+]([O-])=C/c1ccc([S+](=O)([O-])[O][Na])cc1[S+](=O)([O-])[O][Na] [Disufenton sodium] (top concentration 46.0829 µM) | 95.6% | 88.8% | 532 | 525 |
| CCN(CC)C(=S)SSC(=S)N(CC)CC [Disulfiram] (top concentration 46.0829 µM) | 3.68% | 32.4% | 141 | 360 |
| CC(CCc1ccc(O)cc1)NCCc1ccc(O)c(O)c1 (centres undefined) [Dobutamine hydrochloride] (top concentration 46.0829 µM) | 49.9% | 87.6% | 453 | 538 |
